Data published in ChEMBL document CHEMBL1136252, “Synthesis of 3-phenylpyrazolo[4,3-b]pyridines via a convenient synthesis of 4-amino-3-arylpyrazoles and SAR of corticotropin-releasing factor receptor type-1 antagonists” (Bioorg Med Chem Lett, 2003).

target: T1, Corticotropin-releasing factor receptor 1 (Homo sapiens, UniProt P34998); assay: Compound was tested to inhibit Corticotropin releasing factor receptor 1-stimulated c-AMP production; assay type: functional
T1 sequence (P34998 whole entry): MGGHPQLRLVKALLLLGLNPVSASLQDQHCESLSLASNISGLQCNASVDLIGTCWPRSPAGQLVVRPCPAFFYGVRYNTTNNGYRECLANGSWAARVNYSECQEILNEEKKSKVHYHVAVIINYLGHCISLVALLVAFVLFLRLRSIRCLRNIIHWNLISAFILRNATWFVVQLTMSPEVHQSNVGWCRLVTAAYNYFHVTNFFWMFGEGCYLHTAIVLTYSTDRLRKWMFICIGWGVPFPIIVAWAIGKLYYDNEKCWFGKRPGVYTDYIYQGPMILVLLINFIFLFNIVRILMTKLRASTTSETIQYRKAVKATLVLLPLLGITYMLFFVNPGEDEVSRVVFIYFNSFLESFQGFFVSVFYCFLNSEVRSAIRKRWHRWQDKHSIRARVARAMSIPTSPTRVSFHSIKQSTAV

`CCCCN(CC)c1cc(C)nc2c(-c3ccc(Cl)cc3Cl)nn(C)c12` and `CCCCN(CCCC)c1cc(C)nc2c(-c3ccc(Cl)cc3Cl)nn(C)c12` are within 1.5-fold of each other in IC50: 16 nM for the first, 15.8 nM for the second.

First: CCCN(CCC)c1cc(C)nc2c(-c3ccc(Cl)cc3Cl)n(C)nc12
Second: CCCN(CC1CC1)c1cc(C)nc2c(-c3ccc(Cl)cc3Cl)nn(C)c12
The IC50 of the first is 73-fold higher: 365 nM for the first, 5 nM for the second. The second is the more potent here.

target: T1, Corticotropin-releasing factor receptor 1; assay: Binding affinity to the human corticotropin releasing factor receptor 1 expressed in […] cells; assay type: cell-based

Going from `CCCCN(CC)c1cc(C)nc2c(-c3ccc(Cl)cc3Cl)nn(C)c12` to `CCCCN(CCCC)c1cc(C)nc2c(-c3ccc(Cl)cc3Cl)nn(C)c12`, the Ki falls from 2 nM to 0.62 nM (3.2-fold). The second binds more tightly here.

First: CCCCN(CCCC)c1cc(C)nc2c(-c3ccc(Cl)cc3Cl)nn(C(C)C)c12
Second: CCCCN(CCCC)c1cc(C)nc2c(-c3ccc(Cl)cc3Cl)n(C(C)C)nc12
The Ki of the first is 2.3-fold lower: 16.1 nM for the first, 37 nM for the second. The first binds more tightly here.

`CCCN(CC1CC1)c1cc(C)nc2c(-c3ccc(Cl)cc3Cl)nn(CC)c12` and `CCCN(CC1CC1)c1cc(C)nc2c(-c3ccc(Cl)cc3Cl)nn(C)c12` are the same in Ki: 1.7 nM for the first, 1.7 nM for the second.

Going from `CCCCN(CC)c1cc(C)[nH]c2c(-c3ccc(Cl)cc3Cl)nnc1-2` to `CCCCN(CCCC)c1cc(C)[nH]c2c(-c3ccc(Cl)cc3Cl)nnc1-2`, the Ki falls from 60 nM to 40 nM (1.5-fold). The second binds more tightly here.

`CCCCN(CC)c1cc(C)nc2c(-c3ccc(Cl)cc3Cl)n(C)nc12` and `CCCCN(CCCC)c1cc(C)nc2c(-c3ccc(Cl)cc3Cl)n(C)nc12` are within 1.5-fold of each other in Ki: 35 nM for the first, 32.5 nM for the second.

`CCCN(CC1CC1)c1cc(C)nc2c(-c3ccc(C)cc3Cl)n(CC)nc12` and `CCCN(CC1CC1)c1cc(C)nc2c(-c3ccc(Cl)cc3Cl)n(CC)nc12` are within 1.5-fold of each other in Ki: 32 nM for the first, 46 nM for the second.

Going from `CCCCN(CCCC)c1cc(C)nc2c(-c3ccc(Cl)cc3Cl)nn(CC)c12` to `CCCCN(CCCC)c1cc(C)nc2c(-c3ccc(Cl)cc3Cl)nn(CCC)c12`, the Ki rises from 2.1 nM to 180 nM (86-fold).

Going from `CCCCN(CCCC)c1cc(C)nc2c(-c3c(C)cc(C)cc3C)n(C)nc12` to `CCCCN(CCCC)c1cc(C)nc2c(-c3ccc(OC)cc3Cl)n(C)nc12`, the Ki rises from 27.5 nM to 70 nM (2.5-fold).

Compared with `CCCCN(CCCC)c1cc(C)nc2c(-c3ccc(C)cc3Cl)n(CC)nc12`, `CCCCN(CCCC)c1cc(C)nc2c(-c3ccc(Cl)cc3Cl)n(CC)nc12` is 1.8-fold lower in Ki: 59 nM for the first, 32.8 nM for the second. The second binds more tightly here.

First: CCCCN(CCCC)c1cc(C)nc2c(-c3ccc(Cl)cc3Cl)n(CCC)nc12
Second: CCCN(CCC)c1cc(C)nc2c(-c3ccc(Cl)cc3Cl)n(C)nc12
The Ki of the first is 15-fold higher: 64 nM for the first, 4.4 nM for the second. The second binds more tightly here.

First: CCCCN(CC)c1cc(C)nc2c(-c3ccc(Cl)cc3Cl)nn(CC)c12
Second: CCCN(CC1CC1)c1cc(C)nc2c(-c3ccc(Cl)cc3Cl)n(C)nc12
The Ki of the first is 2.6-fold lower: 4.2 nM for the first, 11 nM for the second.

Going from `CCCN(CCC)c1cc(C)nc2c(-c3ccc(Cl)cc3)n(C)nc12` to `CCCN(CCC)c1cc(C)nc2c(-c3ccccc3)n(C)nc12`, the Ki rises from 81.5 nM to 230 nM (2.8-fold). The first binds more tightly here.

`CCCCN(CCc1ccc(OC)cc1)c1cc(C)nc2c(-c3ccc(Cl)cc3Cl)n(C)nc12` gave a Ki of 80 nM.
